Several values for one entry are separate records, joined by “and”; a condition that tells them apart may be missing. Identical values can stand only once.
Legend:
[1] = test system: cutaneous area (volar surfaces of the forearm); experiment: Patch test (epicutaneous test): cutaneous irritation by occlusive application, average index of cutaneous irritation (IIM)
Source text: The first series of tests consisted in the test of cutaneous irritation or epicutaneous test (Patch Test) by means of occlusive application.
(§1) Free glycolic acid 70% (AG)--Du Pont
Ten healthy subjects were selected, of both sex, with negative anamnesis for allergic dermatitis by contact (DAC) and without any other pathology in process during the execution of the Test.
The ready to use plasters for dermoreactions used for the Patch Test were made of white "non woven fabric" with a dermatophilic mass of acrylic adhesive, in the shape of 1 cm diameter disc, covered by small squares of polyethylene.
The test was performed as follows: after cleansing with 70% alcoholic solution (denatured ethyl alcohol the cutaneous area to be treated (volar surfaces of the forearm), occlusive applications of the substance under examination were carried out for one hour. After that period, the plasters were removed and 15 minutes later the cutaneous reaction was evaluated and classified on the basis of an arbitrary scale.
The cutaneous reactions considered were:
According to the arbitrary scale used for the classification of the cutaneous reactions, 0 corresponds to the absence of reaction, 1 point to a light degree, 2 points to a moderate degree of reaction and 3 points to a reaction of serious gravity.
For each volunteer scores were recorded for each parameter and the mean value was calculated. […]

[2] = test system: skin of the face (periocular and zygomatic zone); experiment: Non occlusive application: cutaneous tolerability test on the face
Description: For the second series of tests cutaneous irritation was determined following non-occlusive applications.
Non occlusive application
as §1
Eight healthy volumary women were chosen, aged between 30 and 50 (average age 37,5).
The samples were applied on one half of the face (periocular and zygomatic zone) using a badger brush. The duration of the application was decided according to the type of skin and to the cutaneous reaction of the individual volunteer. 5 applications were carried out, one every three or more days according to the subjects.
The irritating effect was assessed before the application and one hour after the application.
The parameters considered to clinically evaluate the irritating degree of the substance under examination were the following:
irritative symptoms: erythema, pruritus, burning, desquamation, blistering, eczematous reaction.
The irritating effect was assessed on the basis of an arbitrary scale, based on clinical experience, recorded as follows:
1=Modest reaction (slight reddening, pruritus)
2=Irritative reaction (erythema, pruritus, desquamation)
3=Strong irritative reaction (erythema, burning, strong pruritus, desquamation, and more)
After every application the cutaneous reactions of each volunteer were evaluated and a relative score was given.

[3] = application time 3 min, 50% concentration, pH 2,5, right side of face, one value per subject

O=C(O)CO [AG, glycolic acid]
average index of cutaneous irritation of AG compared to that of CCAG ([1]; 10% concentration): significantly and appreciably higher
average index of cutaneous irritation of free glycolic acid compared to that of glycolic acid complexed with cyclodextrins ([1]; at comparable concentrations (5%)): slightly higher
case of average to serious irritation after the second application, requiring suspension of the treatment ([2]; 8 subjects, right side periocular and zygomatic area): one
irritation score (arbitrary scale 0-3), 1st application ([2]; application time 1 min, 50% concentration, pH 2,5, AG right side, CCAG left side of face, one value per subject): 0
irritation score (arbitrary scale 0-3), 2nd application ([2]; application time 2 min, 50% concentration, pH 2,5, AG right side, CCAG left side of face, one value per subject): 2/3 and 0
irritation score (arbitrary scale 0-3), 3rd application ([2]; application time 3 min, 50% concentration, pH 2,5, AG right side, CCAG left side of face, one value per subject): 2 and 0
irritation score (arbitrary scale 0-3), 4th application, AG [2, 3]: 0
irritation score (arbitrary scale 0-3), 5th application, AG [2, 3]: 0
cases of irritation of average gravity after the third application ([2]; in vivo): 2 cases
cases of irritation of grade 2 and 2/3 ([2]; in vivo): 3 cases
irritation because of which subject 1 had to suspend treatment ([2]; subject 1, second application): average to serious irritation

From patent US5733559A, “Controlled release inclusion system of glycolic acid in β-cyclo-dextrin and process for the above system preparation” (priority 1995, dated 1998)
